The values below come from patent US8410170B2, “Use of isothiocyanates compounds in treating prostatic diseases and skin cancer” (Wuxi JC Pharmaceutical Technology Co., Ltd., priority 2005, dated 2013).

The nature of this data set: In vitro dissolution (paddle method, HPLC). In kind it is physicochemical. To be noted: 500 ml water, 37° C., 45 min, paddle 200 r/min. Here is the method: Dissolution Measurement: Dissolution rates of the compositions were measured according to the procedures described in the Chinese Pharmacopeia 2005, Appendix XC, Method 2: Paddle Determination. Briefly, samples are added into 500 ml of de-aired, and deionized water which is kept at 37±0.5° C. for 45 min while the paddle rotates at 200 r/min. Take samples and let the sample be passed through the 0.8 μm filter membrane, and analyzed by HPLC. The dissolution rate was then calculated.

Consider `S=C=NCCc1ccccc1` [PEITC, phenethyl isothiocyanate], for which the “Dissolution Rate” value is reported as 0%.
